The target of the assay is wild-type PA-Nter (Influenza A virus, UniProt C3W5S0, DEL51-57/DEL61-72/E59G). Type of assay: biochemical, influenza A/California/07/2009 (H1N1).

Molecules are shown by their SMILES.

With `O=c1cc(-c2ccc(O)c(O)c2)oc2c([C@@H]3O[C@H](CO)[C@@H](O)[C@H](O)[C@H]3O)c(O)cc(O)c12` [orientin], the “inhibition of endonuclease activity, gel-based assay (qualitative)” value is given as “higher inhibitory potency than luteolin”.

The values are drawn from article PMC8305651 (International Journal of Molecular Sciences, 2021).
